In patent US20260297070A1, “CYCLIC [COMPOUND LEFT OUT] WRN INHIBITORS” (Nimbus Wadjet, Inc., priority 2023, published 2026):

Molecular target: T1, human Werner helicase (WRN-BV08, Uniprot Q14191, amino acids 517-1235 with L1074F point mutation) (Homo sapiens, UniProt Q14191, L1074F)
T1 construct: Uniprot Q14191, amino acids 517-1235 with L1074F point mutation; TEV-cleavable 8×His (C, cleaved yes); made in house; host or cells: Sf9 insect cells (baculovirus)
Test: WRN (BV08) ADP-Glo Assay
Format: biochemical
Conditions: 0.15 nM WRN, 5 μM ATP, 0.1 nM DNA duplex, 15 min preincubation, 60 min at 25° C., pH 7.5, 1% DMSO; read-out: ADP-Glo_hWRN_IC50
Outline: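 0.15 nM WRN (aa 517-1235, L1074F, Sf9-expressed, tag cleaved) preincubated 15 min at 25 °C with compound, then 5 μM ATP and 0.1 nM DNA duplex added for 60 min. Buffer: 20 mM Bicine pH 7.5, 1 mM MgCl2, 10 mM KCl, 1 mM TCEP; 1% DMSO. ADP-Glo luminescence; IC50 by 4-parameter fit.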

T1 sequence (Q14191 with tags, fused parts or gaps L1074F limits assumed): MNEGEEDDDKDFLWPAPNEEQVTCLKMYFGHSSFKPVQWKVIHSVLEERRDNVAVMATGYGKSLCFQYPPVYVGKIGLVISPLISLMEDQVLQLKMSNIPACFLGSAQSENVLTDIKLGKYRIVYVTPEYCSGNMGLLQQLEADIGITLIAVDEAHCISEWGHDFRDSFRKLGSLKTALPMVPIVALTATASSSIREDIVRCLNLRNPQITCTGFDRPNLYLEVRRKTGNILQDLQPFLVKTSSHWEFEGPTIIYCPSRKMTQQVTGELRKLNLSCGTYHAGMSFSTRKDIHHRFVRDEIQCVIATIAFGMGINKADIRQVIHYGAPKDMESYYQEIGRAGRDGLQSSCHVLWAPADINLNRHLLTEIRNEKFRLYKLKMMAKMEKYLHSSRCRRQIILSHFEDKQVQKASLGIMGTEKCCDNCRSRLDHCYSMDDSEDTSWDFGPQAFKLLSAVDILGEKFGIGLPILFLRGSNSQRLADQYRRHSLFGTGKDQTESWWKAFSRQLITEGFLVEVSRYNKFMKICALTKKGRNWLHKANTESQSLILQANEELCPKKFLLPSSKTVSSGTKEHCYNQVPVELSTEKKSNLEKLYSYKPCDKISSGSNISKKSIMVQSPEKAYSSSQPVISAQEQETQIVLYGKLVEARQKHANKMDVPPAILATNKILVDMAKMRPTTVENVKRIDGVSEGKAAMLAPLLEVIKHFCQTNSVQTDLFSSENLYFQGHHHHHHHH

Row | SMILES | IC50 [nM]
1 | COc1cc(CN(C(=O)Cc2ccc(C3CC3)cc2)C2C=CS(=O)(=O)C2)ccn1 (centres unmarked) [I-162, 2-(4-cyclopropylphenyl)-N-(1,1-dioxo-2,3-dihydro-1lambda6-thiophen-3-yl)-N-[(2-methoxypyridin-4-yl)methyl]acetamide] | 500 to 5000
2 | O=C(Cc1ccc(-n2cccc2)cc1)N(Cc1ccc(Br)cc1)C1C=CS(=O)(=O)C1 (centres unmarked) [I-163, N-[(4-bromophenyl)methyl]-N-(1,1-dioxo-2,3-dihydro-1lambda6-thiophen-3-yl)-2-[4-(1H-pyrrol-1-yl)phenyl]acetamide] | 500 to 5000
3 | O=C(Cc1ccc(C2CCCCC2)cc1)N(Cc1ccncc1)C1C=CS(=O)(=O)C1 (centres unmarked) [I-164, 2-(4-cyclohexylphenyl)-N-(1,1-dioxo-2,3-dihydro-1lambda6-thiophen-3-yl)-N-[(pyridin-4-yl)methyl]acetamide] | 500 to 5000
4 | O=C(Cc1ccc(-n2cccc2)cc1)N(Cc1nc2cnccc2s1)C1C=CS(=O)(=O)C1 (centres unmarked) [I-165, N-(1,1-dioxo-2,3-dihydro-1lambda6-thiophen-3-yl)-2-[4-(1H-pyrrol-1-yl)phenyl]-N-({[1,3]thiazolo[4,5-c]pyridin-2-yl}methyl)acetamide] | 500 to 5000
5 | O=C(Cc1ccc(-c2cc(F)cc(F)c2)cc1)N(Cc1ccncc1)C1C=CS(=O)(=O)C1 (centres unmarked) [I-166, 2-{3′,5′-difluoro-[1,1′-biphenyl]-4-yl}-N-(1,1-dioxo-2,3-dihydro-1lambda6-thiophen-3-yl)-N-[(pyridin-4-yl)methyl]acetamide] | 500 to 5000
6 | CC(C)OC(C(=O)N(Cc1ccnc(C(C)(C)O)c1)C1C=CS(=O)(=O)C1)c1ccc(-c2ccc(F)c(F)c2)cc1F (centres unmarked) [I-167, N-(1,1-dioxo-2,3-dihydro-1lambda6-thiophen-3-yl)-N-{[2-(2-hydroxypropan-2-yl)pyridin-4-yl]methyl}-2-(propan-2-yloxy)-2-{3,3′,4′-trifluoro-[1,1′-biphenyl]-4-yl}acetamide] | 500 to 5000
7 | COc1cc(CN(C(=O)Cc2c(F)cc(-c3ccc(F)cc3)cc2F)C2C=CS(=O)(=O)C2)ccn1 (centres unmarked) [I-168, N-(1,1-dioxo-2,3-dihydro-1lambda6-thiophen-3-yl)-N-[(2-methoxypyridin-4-yl)methyl]-2-{3,4′,5-trifluoro-[1,1′-biphenyl]-4-yl}acetamide] | 500 to 5000
8 | CC(O)c1cc(CN(C(=O)Cc2ccc(-n3cccc3)cc2)C2C=CS(=O)(=O)C2)ccn1 (centres unmarked) [I-169, N-(1,1-dioxo-2,3-dihydro-1lambda6-thiophen-3-yl)-N-{[2-(1-hydroxyethyl)pyridin-4-yl]methyl}-2-[4-(1H-pyrrol-1-yl)phenyl]acetamide] | 500 to 5000
9 | O=C(Cc1ccc(-n2cccc2)cc1)N(Cc1ccnc2ccccc12)C1C=CS(=O)(=O)C1 (centres unmarked) [I-170, N-(1,1-dioxo-2,3-dihydro-1lambda6-thiophen-3-yl)-2-[4-(1H-pyrrol-1-yl)phenyl]-N-[(quinolin-4-yl)methyl]acetamide] | 500 to 5000
10 | COc1cc(CN(C(=O)Cc2ccc(-n3c(C)ccc3C)cc2F)C2C=CS(=O)(=O)C2)ccn1 (centres unmarked) [I-171, 2-[4-(2,5-dimethyl-1H-pyrrol-1-yl)-2-fluorophenyl]-N-(1,1-dioxo-2,3-dihydro-1lambda6-thiophen-3-yl)-N-[(2-methoxypyridin-4-yl)methyl]acetamide] | 500 to 5000
11 | COc1cc(CN(C(=O)Cc2ncc(-c3ccc(F)cc3)cc2F)C2C=CS(=O)(=O)C2)ccn1 (centres unmarked) [I-172, N-(1,1-dioxo-2,3-dihydro-1lambda6-thiophen-3-yl)-2-[3-fluoro-5-(4-fluorophenyl)pyridin-2-yl]-N-[(2-methoxypyridin-4-yl)methyl]acetamide] | 500 to 5000
12 | Cc1cccn1-c1ccc(CC(=O)N(Cc2ccn(C)c(=O)c2)C2C=CS(=O)(=O)C2)c(F)c1 (centres unmarked) [I-173, N-(1,1-dioxo-2,3-dihydro-1lambda6-thiophen-3-yl)-2-[2-fluoro-4-(2-methyl-1H-pyrrol-1-yl)phenyl]-N-[(1-methyl-2-oxo-1,2-dihydropyridin-4-yl)methyl]acetamide] | 500 to 5000
13 | Cc1cccn1-c1ccc(C(C(=O)N(C)C)C(=O)N(Cc2ccnc(C(C)(C)O)c2)C2C=CS(=O)(=O)C2)c(F)c1 (centres unmarked) [I-174, N-(1,1-dioxo-2,3-dihydro-1lambda6-thiophen-3-yl)-2-[2-fluoro-4-(2-methyl-1H-pyrrol-1-yl)phenyl]-N-{[2-(2-hydroxypropan-2-yl)pyridin-4-yl]methyl}-N′,N′-dimethylpropanediamide] | 500 to 5000
14 | COc1cc(CN(C(=O)Cc2ccc(-c3ccc(F)cc3)cn2)C2C=CS(=O)(=O)C2)ccn1 (centres unmarked) [I-175, N-(1,1-dioxo-2,3-dihydro-1lambda6-thiophen-3-yl)-2-[5-(4-fluorophenyl)pyridin-2-yl]-N-[(2-methoxypyridin-4-yl)methyl]acetamide] | 500 to 5000
15 | COc1cc(CN(C(=O)C2Cc3cc(-c4ccc(F)cc4)ccc32)C2C=CS(=O)(=O)C2)ccn1 (centres unmarked) [I-176, N-(1,1-dioxo-2,3-dihydro-1lambda6-thiophen-3-yl)-3-(4-fluorophenyl)-N-[(2-methoxypyridin-4-yl)methyl]bicyclo[4.2.0]octa-1,3,5-triene-7-carboxamide] | 500 to 5000
16 | O=C(Cc1ccc(C2CCC2)cc1)N(Cc1ccncc1)C1C=CS(=O)(=O)C1 (centres unmarked) [I-177, 2-(4-cyclobutylphenyl)-N-(1,1-dioxo-2,3-dihydro-1lambda6-thiophen-3-yl)-N-[(pyridin-4-yl)methyl]acetamide] | 500 to 5000
17 | O=C(Cc1ccc(-n2cccc2)cc1)N(Cc1nc2c(s1)COCC2)C1C=CS(=O)(=O)C1 (centres unmarked) [I-178, N-(1,1-dioxo-2,3-dihydro-1lambda6-thiophen-3-yl)-N-({4H,6H,7H-pyrano[4,3-d][1,3]thiazol-2-yl}methyl)-2-[4-(1H-pyrrol-1-yl)phenyl]acetamide] | 500 to 5000
18 | Cc1cccn1-c1ccc(CC(=O)N(Cc2ccnc3c2CCO3)C2C=CS(=O)(=O)C2)c(F)c1 (centres unmarked) [I-179, N-(1,1-dioxo-2,3-dihydro-1lambda6-thiophen-3-yl)-2-[2-fluoro-4-(2-methyl-1H-pyrrol-1-yl)phenyl]-N-({2H,3H-furo[2,3-b]pyridin-4-yl}methyl)acetamide] | 500 to 5000
19 | CC(C)(O)c1cc(CN(C(=O)Cc2ccc(-c3ccc(Cl)cc3)cc2F)C2C=CS(=O)(=O)C2)ccn1 (centres unmarked) [I-180, 2-{4′-chloro-3-fluoro-[1,1′-biphenyl]-4-yl}-N-(1,1-dioxo-2,3-dihydro-1lambda6-thiophen-3-yl)-N-{[2-(2-hydroxypropan-2-yl)pyridin-4-yl]methyl}acetamide] | 500 to 5000
20 | Cc1cccn1-c1ccc(CC(=O)N(Cc2ccncn2)C2C=CS(=O)(=O)C2)c(F)c1 (centres unmarked) [I-181, N-(1,1-dioxo-2,3-dihydro-1lambda6-thiophen-3-yl)-2-[2-fluoro-4-(2-methyl-1H-pyrrol-1-yl)phenyl]-N-[(pyrimidin-4-yl)methyl]acetamide] | 500 to 5000
21 | C#CCCCC(=O)N1CCN(C(=O)c2ccc(CN(C(=O)Cc3ccc(-n4cccc4C)cc3F)C3C=CS(=O)(=O)C3)cc2)CC1 (centres unmarked) [I-182, N-(1,1-dioxo-2,3-dihydro-1lambda6-thiophen-3-yl)-2-[2-fluoro-4-(2-methyl-1H-pyrrol-1-yl)phenyl]-N-({4-[4-(hex-5-ynoyl)piperazine-1-carbonyl]phenyl}methyl)acetamide] | 500 to 5000
22 | O=C(Cn1cc2ccc(C(F)(F)F)cc2n1)N(Cc1ccncc1)C1C=CS(=O)(=O)C1 (centres unmarked) [I-183, N-(1,1-dioxo-2,3-dihydro-1lambda6-thiophen-3-yl)-N-[(pyridin-4-yl)methyl]-2-[6-(trifluoromethyl)-2H-indazol-2-yl]acetamide] | 500 to 5000
23 | NS(=O)(=O)c1ccc(CN(C(=O)Cc2ccc(-n3cccc3)cc2)C2C=CS(=O)(=O)C2)cc1 (centres unmarked) [I-184, N-(1,1-dioxo-2,3-dihydro-1lambda6-thiophen-3-yl)-2-[4-(1H-pyrrol-1-yl)phenyl]-N-[(4-sulfamoylphenyl)methyl]acetamide] | 500 to 5000
24 | O=C(O)c1ccc(CN(C(=O)Cc2ccc(-n3cccc3)cc2F)C2C=CS(=O)(=O)C2)cc1 (centres unmarked) [I-185, 4-{[N-(1,1-dioxo-2,3-dihydro-1lambda6-thiophen-3-yl)-2-[2-fluoro-4-(1H-pyrrol-1-yl)phenyl]acetamido]methyl}benzoic acid] | 500 to 5000
25 | O=C(Cn1cc(-c2ccccc2)cn1)N(Cc1ccncc1)C1C=CS(=O)(=O)C1 (centres unmarked) [I-186, N-(1,1-dioxo-2,3-dihydro-1lambda6-thiophen-3-yl)-2-(4-phenyl-1H-pyrazol-1-yl)-N-[(pyridin-4-yl)methyl]acetamide] | 500 to 5000
26 | O=C(Cc1ccc(-n2cccc2)cc1)N(Cc1ccnc(C(F)F)c1)C1C=CS(=O)(=O)C1 (centres unmarked) [I-187, N-{[2-(difluoromethyl)pyridin-4-yl]methyl}-N-(1,1-dioxo-2,3-dihydro-1lambda6-thiophen-3-yl)-2-[4-(1H-pyrrol-1-yl)phenyl]acetamide] | 500 to 5000
27 | O=C(Cc1ccc(-c2cccc(F)c2)cc1)N(Cc1ccncc1)C1C=CS(=O)(=O)C1 (centres unmarked) [I-188, N-(1,1-dioxo-2,3-dihydro-1lambda6-thiophen-3-yl)-2-{3′-fluoro-[1,1′-biphenyl]-4-yl}-N-[(pyridin-4-yl)methyl]acetamide] | 500 to 5000
28 | Cc1csc(CN(C(=O)Cc2ccc(-n3cccc3)cc2)C2C=CS(=O)(=O)C2)n1 (centres unmarked) [I-189, N-(1,1-dioxo-2,3-dihydro-1lambda6-thiophen-3-yl)-N-[(4-methyl-1,3-thiazol-2-yl)methyl]-2-[4-(1H-pyrrol-1-yl)phenyl]acetamide] | 500 to 5000
29 | N#Cc1csc(CN(C(=O)Cc2ccc(-n3cccc3)cc2)C2C=CS(=O)(=O)C2)n1 (centres unmarked) [I-190, N-[(4-cyano-1,3-thiazol-2-yl)methyl]-N-(1,1-dioxo-2,3-dihydro-1lambda6-thiophen-3-yl)-2-[4-(1H-pyrrol-1-yl)phenyl]acetamide] | 500 to 5000
